Legend:
Format in all cases: cell-based
[1] = test system: Target C CJ mRNA; assay: Gene panel canonical junction qPCR assay, Target C; conditions: decrease in CJ mRNA levels, RT-qPCR
Description: (§1) Compounds described herein were used to modulate RNA transcript abundance in cells. The expression of a target mRNA was measured by detecting the formation of an exon-exon junction in the canonical transcript (CJ). A compound mediated exon-inclusion event was detected by observing an increase in formation of a new junction with an alternative exon (AJ). Real-time qPCR assays were used to detect these splicing switches and interrogate the potency of various compounds towards different target genes. A high-throughput real time quantitative PCR (RT-qPCR) assay was developed to measure these two isoforms of the mRNA (CJ and AJ) for an exemplary gene, HTT, together with a control housekeeping gene, GAPDH or GUSB or PPIA, used for normalization. Briefly, the A673 or K562 cell line was treated with various compounds described herein (e.g., compounds of Formula (I)). After treatment, the levels of the HTT mRNA targets were determined from each sample of cell lysate by cDNA synthesis followed by qPCR.
(§2) The A673 cell line was cultured in DMEM with 10% FBS. Cells were diluted with full growth media and plated in a 96-well plate (15,000 cells in 100 ul media per well). The plate was incubated at 37° C. with 5% CO2 for 24 hours to allow cells to adhere. An 11-point 3-fold serial dilution of the compounds was made in DMSO then diluted in media in an intermediate plate. Compounds were transferred from the intermediate plate to the cell plate with the top dose at a final concentration of 10 uM in the well. Final DMSO concentration was kept at or below 0.25%. The cell plate was returned to the incubator at 37° C. with 5% CO2 for an additional 24 hours.
(§3) The K562 cell line was cultured in IMDM with 10% FBS. For K562, cells were diluted with full growth media and plated in either a 96-well plate (50,000 cells in 50 uL media per well) or a 384-well plate (8,000-40,000 cells in 45 uL media per well). An 11-point 3-fold serial dilution of the compounds were made in DMSO then diluted in media in an intermediate plate. Compound was transferred from the intermediate plate to the cell plate with the top dose at a final concentration of 10 uM in the well. Final DMSO concentration was kept at or below 0.25%. Final volume was 100 uL for 96-well plate and 50 uL for 384-well plate. The cell plate was then placed in an incubator at 37° C. with 5% CO2 for 24 hours.
(§4) The cells were then gently washed with 50 uL-100 uL cold PBS before proceeding to addition of lysis buffer. 30 uL-50 uL of room temperature lysis buffer with DNAse I (and optionally RNAsin) was added to each well. Cells were shaken/mixed thoroughly at room temperature for 5-10 minutes for lysis to take place and then 3 uL-5 uL of room temperature stop solution was added and wells were shaken/mixed again. After 2-5 minutes, the cell lysate plate was transferred to ice for RT-qPCR reaction setup. The lysates could also be frozen at −80° C. for later use.
(§5) In some cases, a direct lysis buffer was used. An appropriate volume of 3× lysis buffer (10 mM Tris, 150 mM NaCl, 1.5%-2.5% Igepal and 0.1-1 U/uL RNAsin, pH 7.4) was directly added to either K562 or A673 cells in media and mixed by pipetting 3 times. The plates were then incubated at room temperature with shaking/rocking for 20-50 minutes to allow for lysis to take place. After this time, the cell lysate plate was transferred to ice to set up for the RT-qPCR reactions. The lysates could also be frozen at −80° C. for later use.
(§6) To set up 10 uL RT-qPCR reactions, cell lysates were transferred to 384-well qPCR plates containing the master mix according to the table below. The plates were sealed, gently vortexed, and spun down before the run. The volumes were adjusted accordingly in some instances where the reaction was carried in 20 uL. The table below summarizes the components of the RT-qPCR reactions:
(§7) The RT-qPCR reaction was performed using a QuantStudio (ThermoFisher) under the following fast cycling conditions. […]

[2] = test system: HTT mRNA; assay: RT-qPCR splicing assay for HTT mRNA isoforms (canonical junction CJ and alternative junction AJ); conditions: A673 or K562 cell line, 24 hours compound treatment; for AC50: increase in AJ mRNA; for IC50: decrease in CJ mRNA
Description: as §1
Cells-to-CT 1-step kit: ThermoFisher A25602, Cells-to-CT lysis reagent: ThermoFisher 4391851C, TaqMan™ Fast Virus 1-Step Master Mix: ThermoFisher 4444436 GAPDH: VIC-PL, ThermoFisher 4326317E (Assay: Hs99999905_m1)—used for K562/suspension cell lines GUSB: VIC-PL, ThermoFisher 4326320E (Assay: Hs99999908_m1)—used for K562/suspension cell lines PPIA: VIC-PL, ThermoFisher 4326316E (Assay: Hs99999904_m1)—used for A673/adherent cell lines
as §2, §3, §4
as §5, with “use. […]” for “use.”

[3] = test system: HTT CJ mRNA; assay: Gene panel canonical junction qPCR assay, HTT; conditions: decrease in CJ mRNA levels, RT-qPCR
Description: as §1, §2, §3, §4, §5, §6, §7

[4] = test system: SMN2 CJ mRNA; assay: Gene panel canonical junction qPCR assay, SMN2; conditions: decrease in CJ mRNA levels, RT-qPCR
Description: as §1, §2, §3, §4, §5, §6, §7

Compound | IC50 [1] [µM] | AC50 [2] [µM] | IC50 [2] [µM] | IC50 [3] [µM] | IC50 [4] [µM]
C[C@@H]1C[C@H](N(C)c2ccc3c(c2)OCc2cc(-c4cn[nH]c4)ccc2-3)CCN1 [Compound 101, (2R,4R)—N,2-dimethyl-N-[8-(1H-pyrazol-4-yl)-6H-benzo[c]chromen-3-yl] piperidin-4-amine] | > 10 | > 10 |  |  | 
CN(c1ccc2c(c1)CCOc1cc(-c3cn[nH]c3)ccc1-2)[C@@H]1C[C@H]2CC[C@@H](C1)N2 [Compound 112] | > 10 |  |  |  | 
c1cnn(-c2ccc3c(c2)COc2nc(N(C4CC4)[C@@H]4C[C@H]5CC[C@@H](C4)N5)ccc2-3)c1 [Compound 205] |  | 0.1 to 1 | 1 to 10 |  | 
c1cnn(-c2ccc3c(c2)OCc2cc(N[C@@H]4C[C@H]5CC[C@@H](C4)N5)ccc2-3)c1 [Compound 119] | 1 to 10 | > 10 | > 10 | > 10 | 
Cc1cnc(-c2ccc3c(c2)COc2nc(N(C)[C@@H]4C[C@H]5CC[C@@H](C4)N5)ccc2-3)o1 [Compound 206] |  | 0.1 to 1 | 0.1 to 1 |  | 
CN(c1ccc2c(n1)CCOc1cc(-c3cn[nH]c3)ccc1-2)[C@@H]1C[C@H]2CC[C@@H](C1)N2 [Compound 127, N-[(1R,3S,5S)-8-azabicyclo[3.2.1]octan-3-yl]-N-methyl-13-(1H-pyrazol-4-yl)-10-oxa-6-azatricyclo[9.4.0.0^[2,7]]pentadeca-1(11),2(7),3,5,12,14-hexaen-5-amine] |  | > 10 | > 10 | > 10 | > 10
CC1(C)CC(Nc2ccc3c(c2)COc2cc(-n4cccn4)ccc2-3)CC(C)(C)N1 [Compound 118, 2,2,6,6-tetramethyl-N-[3-(pyrazol-1-yl)-6H-benzo[c]chromen-8-yl]piperidin-4-amine] |  | > 10 | > 10 | > 10 | > 10
c1cc2c(cc1-c1cn[nH]c1)OCCc1nc(N[C@@H]3C[C@H]4CC[C@@H](C3)N4)ccc1-2 [Compound 140, N-[(1R,3S,5S)-8-azabicyclo[3.2.1]octan-3-yl]-13-(1H-pyrazol-4-yl)-10-oxa-6-azatricyclo[9.4.0.0^[2,7]]pentadeca-1(11),2(7),3,5,12,14-hexaen-5-amine] |  | > 10 | > 10 | > 10 | > 10
CN(c1ccc2c(c1)COc1cc(-n3cccn3)ccc1-2)C1CC(C)(C)NC(C)(C)C1 [Compound 117, N,2,2,6,6-pentamethyl-N-[3-(pyrazol-1-yl)-6H-benzo[c]chromen-8-yl]piperidin-4-amine] |  | > 10 | > 10 | > 10 | > 10
CN(c1ccc2c(c1)COc1cc(-n3cccn3)ccc1-2)[C@@H]1C[C@H]2CC[C@@H](C1)N2 [Compound 105] |  | > 10 | > 10 | > 10 | > 10
CC1(C)CC(Nc2ccc3c(n2)CCOc2cc(-c4cn[nH]c4)ccc2-3)CC(C)(C)N1 [Compound 141, 13-(1H-pyrazol-4-yl)-N-(2,2,6,6-tetramethylpiperidin-4-yl)-10-oxa-6-azatricyclo[9.4.0.0^[2,7]]pentadeca-1(11),2(7),3,5,12,14-hexaen-5-amine] | 1 to 10 | > 10 | > 10 | > 10 | 
c1cnn(-c2ccc3c(c2)COc2nc(N(C4CC4)[C@@H]4C[C@H]5CCC[C@@H](C4)N5)ccc2-3)c1 [Compound 203] |  | 1 to 10 | 1 to 10 |  | 
CN(c1ccc2c(n1)CCOc1cc(-c3cn[nH]c3)ccc1-2)C1CC(C)(C)NC(C)(C)C1 [Compound 114, N-methyl-13-(1H-pyrazol-4-yl)-N-(2,2,6,6-tetramethylpiperidin-4-yl)-10-oxa-6-azatricyclo[9.4.0.0^[2,7]]pentadeca-1(11),2(7),3,5,12,14-hexaen-5-amine] | < 0.1 | < 0.1 | 0.1 to 1 | 0.1 to 1 | 
C[C@H]1C[C@H](N(C)c2ccc3c(c2)OCc2cc(-c4cn[nH]c4)ccc2-3)CCN1 [Compound 102, (2S,4R)—N,2-dimethyl-N-[8-(1H-pyrazol-4-yl)-6H-benzo[c]chromen-3-yl]piperidin-4-amine] | > 10 | > 10 | > 10 | > 10 | 
CN(c1ccc2c(c1)OCc1cc(-c3cn[nH]c3)ccc1-2)[C@@H]1C[C@H]2CC[C@@H](C1)N2 [Compound 104, (1R,3S,5S)—N-Methyl-N-[8-(1H-pyrazol-4-yl)-6H-benzo[c]chromen-3-yl]-8-azabicyclo[3.2.1]octan-3-amine] | > 10 | > 10 | > 10 | > 10 | 
CCN(c1ccc2c(n1)OCc1cc(-n3cccn3)ccc1-2)[C@@H]1C[C@H]2CCC[C@@H](C1)N2 [Compound 195] | 1 to 10 |  |  | 0.1 to 1 | 0.1 to 1
c1cc2c(cc1N[C@@H]1C[C@H]3CC[C@@H](C1)N3)CCOc1cc(-c3cn[nH]c3)ccc1-2 [Compound 132, N-[5-(1H-pyrazol-4-yl)-8-oxatricyclo[9.4.0.0^[2,7]]pentadeca-1(11),2(7),3,5,12,14-hexaen-13-yl]-8-azabicyclo [3.2.1] octan-3-amine] | > 10 | > 10 | > 10 | > 10 | 
CC1(C)CC(N(c2ccc3c(n2)OCc2cc(-n4cccn4)ccc2-3)C2CC2)CC(C)(C)N1 [Compound 204] |  | > 10 | 1 to 10 |  | 
CN(c1ccc2c(n1)COc1cc(-n3cccn3)ccc1-2)[C@@H]1C[C@H]2CC[C@@H](C1)N2 [Compound 109] |  | 0.1 to 1 | 0.1 to 1 |  | 
CN(c1ccc2c(c1)CCOc1cc(-n3cccn3)ccc1-2)[C@@H]1C[C@H]2CC[C@@H](C1)N2 [Compound 138, (1R,3S,5S)—N-methyl-N-[5-(pyrazol-1-yl)-8-oxatricyclo[9.4.0.0^[2,7]]pentadeca-1(11),2(7), 3,5,12,14-hexaen-13-yl]-8-azabicyclo [3.2.1] octan-3-amine] | 1 to 10 | 1 to 10 | 1 to 10 | 1 to 10 | 
CN(c1ccc2c(n1)CCOc1cc(-n3cccn3)ccc1-2)[C@@H]1C[C@H]2CC[C@@H](C1)N2 [Compound 128, N-[(1R,3S,5S)-8-azabicyclo[3.2.1]octan-3-yl]-N-methyl-13-(pyrazol-1-yl)-10-oxa-6-azatricyclo[9.4.0.0^[2,7]]pentadeca-1(11),2(7),3,5,12,14-hexaen-5-amine] | > 10 | > 10 | > 10 | > 10 | 
